From patent EP3763715A1, “HARRINGTONINES SALTS, IN PARTICULAR RETINOATES, THEIR PROCESS OF PREPARATION AND THEIR USES IN THE TREATMENT OF LEUKEMIAS, CANCERS, AUTOIMMUNE, SKIN, ALZHEIMER'S AND INFLAMMATORY BOWEL DISEASES AND VIRAL INFECTIONS, COMBINED WITH MYELOPOIESIS STIMULATING AGENTS” (Robin, Jean-Pierre, priority 2019, dated 2021)

Tests used:
Type in all cases: cell-based, human
K562 cell line = test: Testing on K562 leukemia cell line (MTT cytotoxicity); settings: K562 cells, 72 h incubation, preliminary screening, read-out: K562 (CML) IC50
Experimental: (§1) Retinoates of harringtonines described in this invention were tested on K562 cell line which is derived from the pleural effusion of a person with chronic myelogenous leukemia (CML, bcr-abl positive) in terminal blast crises (Lozzio and Lozzio, Blood, 1975, p321). The cell line was purchased from ATCC (American Tissue Culture Collection) and grown in RPMI medium supplemented with 10% heat-inactivated fetal calf serum, 2 mmol/L glutamine, […] penicillin and […] streptomycin. All tested products were initially dissolved in 2N HCl (pH=2) (alkaloid base) or in aqueous solvent (salt) or in DMSO (retinoids), supplemented with ultrasound treatment during 1 h. Working concentrations were made by dilution in culture medium (pH 7). Cells in exponential growth phase were placed into 96-microwell plates in concentration 3x10^4/mL (total volume 200 µL/well) and incubated with drugs for 72 h at 37° C. in 5% CO2 humidified atmosphere. Following incubation, 28 µL of MTT 3-(4,5 dimethylthiazol-2-yl)-2,5 tetrazolium bromide] dye solution (Sigma, St. Louis, Mo.) was added to each well. During the following 6 h of incubation at 37° C., the purple formazan product was formed by conversion of the yellow MTT salt in the mitochondria of the viable cells. The resulting precipitate was dissolved in DMSO and the amount of converted MTT was quantified in an ELISA reader (MR 5000, Dynatech). Each product was tested in triplicate (3x8 wells). Every test contained at least one plate with HHT as control, added in the same concentration as the tested products.

HL-60 cell line = test: Testing on HL-60 leukemia cell line (MTT cytotoxicity); settings: HL-60 cells, medium with 20% fetal bovine serum, preliminary screening, read-out: HL60 (APL) IC50
Experimental: as §1
Retinoates of harringtonines described in this invention were tested on HL-60 cell line, derived from acute promyelocytic leukemia (APL) cells. HL-60 is a promyelocytic cell line derived by S.J. Collins, et al. (Proc. Natl. Acad. Sci. USA 1978 p2458). Peripheral blood leukocytes were obtained by leukopheresis from a person with APL (Gallagher R, et al. Blood 1978, p713) The cell line was purchased from ATCC (American Tissue Culture Collection) and the base growth medium was also completed with fetal bovine serum but at a final concentration of 20%, otherwise the same method than the one of example 10 was used.
Preliminary screening using this tumor cell lines are gathered in table 1.

MDA-MB-468 = test: Testing on breast cancer cell lines, sulforhodamine B (SRB) cell viability assay; settings: MDA-MB-468 breast cancer cells, preliminary screening, read-out: M DA-MB-468 (BC) IC50
Experimental: Operating Procedure were performed as described in the recent paper of Yakhni et al [Yakhni AM J CANCER RES 2019; 9(5) in press "Homoharringtonine, on approved anti-leukemia drug, suppresses triple negative breast cancer growth through a rapid reduction of anti-apoptotic protein abundance"]
The cell lines used in this study were MDA-MB-231 (ATCC® HTB-26™), MDA-MB-468 (ATCC® HTB-132™), MDA-MB-157 (ATCC® HTB-24™) and CAL-51. Those lines were chosen to represent the BRCA1/2 non-mutated TNBC transcriptomic subtypes, currently most in need of efficacious treatment due to lower sensibility of BRCA1 wild-type TNBC to the DNA-damaging chemotherapy (Masuda et al., Clin Cancer Res. 2013, p5533; Jiang et al., PLoS Med. 2016, pe1002193; Park et al. ESMO Open. 2018, pe000357). CAL-51 line represents the mesenchymal transcriptomic subtype whereas MDA-MB-157 and MDA-MB-231 represent the mesenchymal stem-like subtype (Lehmann et al. J Clin Invest. 2011, p2750). MDA-MB-468 was used as a model of aggressive, PTEN-negative TNBC, with hyperactivated EGFR signaling pathway due to EGFR amplification (Filmus et al., Biochem Biophys Res Commun. 1985, p898). MDA-MB-468 transcriptome classifies it into the basal-like 1 subtype (49). The MDA lines were purchased from the American Type Culture Collection (ATCC, Manassas, VA, USA). The CAL-51 was kindly provided by Dr Gerard Milano, from the Centre Antoine Lacassagne, Nice, France, where the line has been established (Gioanni et al., Br J Cancer 1990, p8). After initial expansion, the cell line stock vials were conserved, in liquid nitrogen, at the Biological Resource Center of Jean Perrin Comprehensive Cancer Center (biobank ID BB-0033-00075, Clermont-Ferrand, France). The MDA cell lines were cultured in the Leibovitz L-15 medium, whereas CAL-51 line was maintained in DMEM (both media from Invitrogen Life Technologies, Carlsbad, CA, USA). The media were supplemented with 10% heat-inactivated fetal bovine serum and […] gentamicin. CAL-51 line was kept at 37°C, in a humidified atmosphere with 5% CO2; the MDA lines were kept under the same conditions, however, without CO2, in a free gas exchange with atmospheric air. All cell lines were maintained in monolayer culture, in the sub-confluent status, with no more 30 passages of the cells thawed from the stock vial.
Homoharringtonine was supplied by LeukePharma Inc. (Houston, TX, USA) as water-soluble, crystalline tartaric acid salt. Initial stock solution of HHT-tartrate was prepared at 10 mM in sterile deionized water, aliquoted and kept at -80°C. For each experiment, a fresh HHT solution was prepared by dissolving the HHT stock in phosphate-buffered saline (PBS, GIBCO™, Invitrogen, Cergy-Pontoise, France).
Cell viability was assessed using the sulforhodamine B (SRB) assay (Sigma-Aldrich, St Louis, MO, USA) according to the method described by Vichai and Kirtikara (Nat Protoc. 2006, p1112). Cells were seeded in 96-well plates, at 5x10^3 or 1x10^3 cells/well (the MDA cell lines and CAL-51, respectively), left overnight to adhere and then treated with growing concentrations of HHT for 24h, 48h or 72h. After incubation with the drug, cells were washed twice with PBS and left for 72 h in the corresponding complete culture medium. Then the cells were fixed with trichloroacetic acid (final concentration 10%) at 4°C for 1 h, followed with plate washing with water five times, air drying and staining with 0.4% SRB dissolved in 1% acetic acid, at room temperature, for 30 min. The plates were subsequently washed four times with 1% acetic acid to remove unbound stain. To solubilize the protein-bound dye, 10 mM Tris base solution was added to each well. The cell viability, estimated through the present protein biomass, was determined by measuring optical density of the dye, using a spectrophotometer at wavelength of 540 nm (BMG Labtech, Ortenberg, Germany).
Preliminary screening using these tumor cell lines are gathered in table 1.

Q: How did the IC50 (K562 cell line) turn out when `CC1=C(/C=C/C(C)=C/C=C/C(C)=C/C(=O)O)C(C)(C)CCC1.COC(=O)C[C@](O)(CCCC(C)(C)O)C(=O)O[C@@H]1C(OC)=C[C@]23CCCN2CCc2cc4c(cc2[C@H]13)OCO4` (relative stereo) [Example 1, homoharringtonine all-trans-retinoate] was run?
A: < 50 nM

Q: What about the IC50 (HL-60 cell line) of the same compound?
A: < 100 nM

Q: What about the IC50 (MDA-MB-468) of the same compound?
A: < 50 nM

Q: `CC1=C(/C=C/C(C)=C/C=C/C(C)=C/C(=O)O)C(C)(C)CCC1.COC(=O)C[C@@]1(C(=O)O[C@@H]2C(OC)=C[C@]34CCCN3CCc3cc5c(cc3[C@H]24)OCO5)CCCC(C)(C)O1` (relative stereo) [Example 18, Anhydrohomoharringtonine all-trans-retinoate] was tested. Which IC50 (K562 cell line) did it give?
A: < 50 nM

Q: And the IC50 (HL-60 cell line)?
A: < 100 nM

Q: What about the IC50 (MDA-MB-468) of the same compound?
A: < 50 nM

Q: `CC(C=CC1=C(C)CCCC1(C)C)=CC=CC(C)=CC(=O)O.COC(=O)CC(O)(CCC(C)(C)O)C(=O)OC1C(OC)=CC23CCCN2CCc2cc4c(cc2C13)OCO4` (stereo not drawn) [Example 2, harringtonine all-trans-retinoate] was tested. Which IC50 (K562 cell line) did it give?
A: < 100 nM

Q: And the IC50 (HL-60 cell line)?
A: > 100 nM

Q: Which IC50 (K562 cell line) does the source give for `CC(C=CC1=C(C)CCCC1(C)C)=CC=CC(C)=CC(=O)O.COC(=O)CC(O)(CCCC(C)(C)O)C(=O)OC1C(OC)=CC23CCCN2CCc2cc4c(cc2C13)OCO4` (stereo not drawn) [Example 3, homoharringtonine 13-cis-retinoate] here?
A: < 50 nM

Q: How did the IC50 (K562 cell line) turn out when `COC(=O)CC(O)(CCCC(C)(C)O)C(=O)OC1C(OC)=CC23CCCN2CCc2cc4c(cc2C13)OCO4.COc1cc(C)c(C=CC(C)=CC=CC(C)=CC(=O)O)c(C)c1C` (stereo not drawn) [Example 4, homoharringtonine "acitretinoate"] was run?
A: < 50 nM

Q: What about the IC50 (HL-60 cell line) of the same compound?
A: < 100 nM

Q: What does the source list for `CC1(C)CCC(C)(C)c2cc(NC(=O)c3ccc(C(=O)O)cc3)ccc21.COC(=O)CC(O)(CCCC(C)(C)O)C(=O)OC1C(OC)=CC23CCCN2CCc2cc4c(cc2C13)OCO4` (stereo not drawn) [Example 5, homoharringtonine tamibarotenoate]?
A: IC50 (K562 cell line): < 20 nM; IC50 (HL-60 cell line): < 50 nM; IC50 (MDA-MB-468): < 20 nM

Q: Which IC50 (K562 cell line) does the source give for `COC(=O)CC(O)(CCCC(C)(C)O)C(=O)OC1C(OC)=CC23CCCN2CCc2cc4c(cc2C13)OCO4.O=C(O)C=Cc1ccc(-c2ccc(O)c(C34CC5CC(CC(C5)C3)C4)c2)cc1` (stereo not drawn) [Example 6, homoharringtonine "adarotenoate"] here?
A: < 50 nM

Q: And the IC50 (HL-60 cell line)?
A: < 100 nM

Q: Which results are given for `C=C(c1ccc(C(=O)O)cc1)c1cc2c(cc1C)C(C)(C)CCC2(C)C.COC(=O)C[C@](O)(CCCC(C)(C)O)C(=O)O[C@@H]1C(OC)=C[C@]23CCCN2CCc2cc4c(cc2[C@H]13)OCO4` [Example 7, homoharringtonine "bexarotenoate"]?
A: IC50 (K562 cell line): < 20 nM; IC50 (HL-60 cell line): < 20 nM; IC50 (MDA-MB-468): < 20 nM

Q: With `COC(=O)C[C@](O)(CCCC(C)(C)O)C(=O)O[C@@H]1C(OC)=C[C@]23CCCN2CCc2cc4c(cc2[C@H]13)OCO4.COc1ccc(-c2ccc3cc(C(=O)O)ccc3c2)cc1C12CC3CC(CC(C3)C1)C2` [Example 8, homoharringtonine "adapalenoate"] as the compound, how does the IC50 (K562 cell line) read?
A: < 50 nM

Q: What about the IC50 (HL-60 cell line) of the same compound?
A: < 100 nM

Q: What about the IC50 (MDA-MB-468) of the same compound?
A: < 50 nM

Q: For `COC(=O)C[C@](O)(CCC(C)(C)O)C(=O)O[C@@H]1C(OC)=C[C@]23CCCN2CCc2cc4c(cc2[C@H]13)OCO4.COc1ccc(-c2ccc3cc(C(=O)O)ccc3c2)cc1C12CC3CC(CC(C3)C1)C2` [Example 9, harringtonine "adapalenoate"], which IC50 (K562 cell line) is on record?
A: < 100 nM

Q: Which IC50 (K562 cell line) does the source give for `CC(=Cc1ccc(C(=O)O)cc1)c1ccc2c(c1)C(C)(C)CCC2(C)C.COC(=O)CC(O)(CCCC(C)(C)O)C(=O)OC1C(OC)=CC23CCCN2CCc2cc4c(cc2C13)OCO4` (stereo not drawn) [Example 13, homoharringtonine arotinoate] here?
A: < 50 nM

Q: Which IC50 (K562 cell line) does the source give for `CC(=Cc1ccc(C(=O)O)cc1)c1ccc2c(c1)C(C)(C)CCC2(C)C.COC(=O)CC(O)(CCC(C)(C)O)C(=O)OC1C(OC)=CC23CCCN2CCc2cc4c(cc2C13)OCO4` (stereo not drawn) [Example 14, harringtonine arotinoate] here?
A: < 100 nM

Q: `COC(=O)CC(O)(CCCC(C)(C)O)C(=O)O[C@@H]1C(OC)=C[C@]23CCCN2CCc2cc4c(cc2[C@H]13)OCO4.Cc1ccc(C2=CCC(C)(C)c3ccc(C#Cc4ccc(C(=O)O)cc4)cc32)cc1` (stereo partly drawn) [Example 16, Butanedioic acid, 2-hydroxy-2-(4-hydroxy-4-methylpentyl)-, 1-[(1S,3aR,14bS)-1,5,6,8,9,14b-hexahydro-2-methoxy-4H-cyclopenta[a][1,3]dioxolo[4,5-h]pyrrolo[2,1-b][3]benzazepin-1-yl]4-methyl ester, 4-[[5,6-dihydro-5,5-dimethyl-8-(4-methylphenyl)-2-naphthalenyl]ethynyl]benzoate] was tested. Which IC50 (K562 cell line) did it give?
A: < 50 nM

Q: What about the IC50 (HL-60 cell line) of the same compound?
A: < 100 nM

Q: How did the IC50 (K562 cell line) turn out when `COC(=O)CC(O)(CCC(C)(C)O)C(=O)OC1C(OC)=CC23CCCN2CCc2cc4c(cc2C13)OCO4.COc1cc(C)c(C=CC(C)=CC=CC(C)=CC(=O)O)c(C)c1C` (stereo not drawn) [Example 17, harringtonine acitretinate] was run?
A: < 50 nM

Q: What about the IC50 (HL-60 cell line) of the same compound?
A: < 100 nM

Q: Which results are given for `COC(=O)CC1(C(=O)OC2C(OC)=CC34CCCN3CCc3cc5c(cc3C24)OCO5)CCCC(C)(C)O1.COc1cc(C)c(C=CC(C)=CC=CC(C)=CC(=O)O)c(C)c1C` (stereo not drawn) [Example 19, anhydrohomoharringtonine "acitretinoate"]?
A: IC50 (K562 cell line): > 100 nM; IC50 (MDA-MB-468): > 100 nM

Q: What does the source list for OP5215 all-trans-retinoate [Example 24]?
A: IC50 (K562 cell line): < 50 nM; IC50 (HL-60 cell line): < 100 nM
